In US7601716B2, “Pyridopyrazines and derivatives thereof as ALK and c-Met inhibitors” (Cephalon, Inc., priority 2006, dated 2009):

The compounds below were run against baculovirus-expressed ALK (Homo sapiens, UniProt Q9UM73) (assay: ALK Kinase Assay (ELISA/TRF, PLC-γ substrate)). Settings: read-out: ALK Kinase Inhibition (IC50).
Assay type: biochemical
Protocol: Example compounds were tested for their ability to inhibit the kinase activity of baculovirus-expressed ALK using a modification of the ELISA protocol reported for trkA in Angeles, T. S. et al., Anal. Biochem. 1996, 236, 49-55, which is incorporated herein by reference in its entirety. Phosphorylation of the substrate, phospholipase C-gamma (PLC-γ) generated as a fusion protein with glutathione S-transferase (GST) as reported in Rotin, D. et al., EMBO J. 1992, 11, 559-567, which is incorporated herein by reference in its entirety, was detected with a europium-labeled anti-phosphotyrosine antibody and measured by time-resolved fluorescence (TRF). Briefly, each 96-well plate was coated with 100 μL/well of 10 μg/mL substrate (phospholipase C-γ) in Tris-buffered saline (TBS). […] The reaction was initiated by adding enzyme (30 ng/ml ALK) and was allowed to proceed at 37° C. for 15 minutes. Detection of the phosphorylated product was performed by adding 100 μl/well of Eu-N1 labeled PT66 antibody (Perkin Elmer # AD0041). Incubation at 37° C. then proceeded for one (1) hour, followed by addition of 100 μL enhancement solution (Wallac #1244-105). The plate was gently agitated and after thirty minutes, the fluorescence of the resulting solution was measured using the EnVision 2100 (or 2102) multilabel plate reader (Perkin Elmer).
Data analysis was performed using ActivityBase (IDBS, Guilford, UK). IC50 values were calculated by plotting percent inhibition versus log10 of the concentration of compound and fitting to the nonlinear regression sigmoidal dose-response (variable slope) equation in XLFit (IDBS, Guilford, UK).
Note: 1 µM ATP (Km level).

Chain of baculovirus-expressed ALK (Q9UM73 19-1620): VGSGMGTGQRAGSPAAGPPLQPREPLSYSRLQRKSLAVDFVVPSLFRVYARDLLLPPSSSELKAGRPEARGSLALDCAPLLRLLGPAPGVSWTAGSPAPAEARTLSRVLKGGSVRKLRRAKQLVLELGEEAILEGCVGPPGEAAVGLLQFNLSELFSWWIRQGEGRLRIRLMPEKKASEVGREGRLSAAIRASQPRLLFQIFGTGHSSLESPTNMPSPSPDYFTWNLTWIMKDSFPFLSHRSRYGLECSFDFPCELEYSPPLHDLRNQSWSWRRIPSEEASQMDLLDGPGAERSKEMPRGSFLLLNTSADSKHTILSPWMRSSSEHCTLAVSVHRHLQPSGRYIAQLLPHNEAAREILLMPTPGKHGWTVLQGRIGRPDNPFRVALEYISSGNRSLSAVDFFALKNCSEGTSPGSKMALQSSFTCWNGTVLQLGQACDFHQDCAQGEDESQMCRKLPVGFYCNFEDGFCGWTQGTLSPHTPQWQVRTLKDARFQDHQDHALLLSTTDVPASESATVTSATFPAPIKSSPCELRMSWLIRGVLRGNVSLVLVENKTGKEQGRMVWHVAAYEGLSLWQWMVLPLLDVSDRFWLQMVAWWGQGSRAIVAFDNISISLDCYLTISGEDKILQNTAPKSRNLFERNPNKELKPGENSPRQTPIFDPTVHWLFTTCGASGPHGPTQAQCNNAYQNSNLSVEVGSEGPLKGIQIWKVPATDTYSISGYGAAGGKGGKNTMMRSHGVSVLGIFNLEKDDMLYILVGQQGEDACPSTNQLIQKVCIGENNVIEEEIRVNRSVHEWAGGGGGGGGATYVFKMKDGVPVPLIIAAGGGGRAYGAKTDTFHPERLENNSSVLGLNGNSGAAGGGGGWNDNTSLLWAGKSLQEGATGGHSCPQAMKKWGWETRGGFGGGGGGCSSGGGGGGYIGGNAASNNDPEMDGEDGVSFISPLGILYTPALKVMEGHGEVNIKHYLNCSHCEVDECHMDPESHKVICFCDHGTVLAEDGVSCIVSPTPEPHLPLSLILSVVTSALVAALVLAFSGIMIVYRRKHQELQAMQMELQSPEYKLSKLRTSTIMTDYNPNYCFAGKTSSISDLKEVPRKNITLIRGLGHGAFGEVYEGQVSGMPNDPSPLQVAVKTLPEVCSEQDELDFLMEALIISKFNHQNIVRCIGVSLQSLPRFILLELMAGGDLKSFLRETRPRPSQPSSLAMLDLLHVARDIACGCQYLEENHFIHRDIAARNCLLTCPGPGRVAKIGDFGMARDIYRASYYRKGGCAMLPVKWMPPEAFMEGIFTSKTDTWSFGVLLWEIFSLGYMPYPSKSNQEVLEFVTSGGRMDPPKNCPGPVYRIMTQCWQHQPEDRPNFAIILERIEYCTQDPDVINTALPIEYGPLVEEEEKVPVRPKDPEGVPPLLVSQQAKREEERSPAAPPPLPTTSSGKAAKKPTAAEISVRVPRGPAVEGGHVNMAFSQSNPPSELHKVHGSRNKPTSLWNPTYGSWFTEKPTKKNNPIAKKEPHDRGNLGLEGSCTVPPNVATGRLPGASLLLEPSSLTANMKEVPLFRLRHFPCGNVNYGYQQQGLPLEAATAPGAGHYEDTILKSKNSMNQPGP

| Structure (SMILES) | IC50 |
| --- | --- |
| O=C(NCc1csc(-c2ccccc2)n1)c1ccc(-c2cnc3c(c2)N(Cc2cc(Cl)ccc2C(F)(F)F)CCN3)cc1 [Example 407, 4-{1-[5-Chloro-2-(trifluoromethyl)benzyl]-1,2,3,4-tetrahydropyrido[2,3-b]pyrazin-7-yl}-N-(2-phenylthiazol-4-ylmethyl)benzamide] | 100 to 1000 nM |
| O=C(c1ccc(-c2cnc3c(c2)N(Cc2cc(Cl)ccc2C(F)(F)F)CCN3)cc1)N1CCN(CCc2ccccn2)CC1 [Example 394, (4-{1-[5-Chloro-2-(trifluoromethyl)benzyl]-1,2,3,4-tetrahydropyrido[2,3-b]pyrazin-7-yl}phenyl)-[4-(2-pyridin-2-yl-ethyl)piperazin-1-yl]methanone] | < 100 nM |
| O=C(c1cccc(-c2cnc3c(c2)N(Cc2cc(Cl)ccc2C(F)(F)F)CCN3)c1)N1CCN(c2ccccc2Cl)CC1 [Example 360, [4-(2-Chlorophenyl)piperazin-1-yl]-(3-{1-[5-chloro-2-(trifluoromethyl)benzyl]-1,2,3,4-tetrahydropyrido[2,3-b]pyrazin-7-yl}phenyl)methanone] | 100 to 1000 nM |
| O=C(c1ccc(-c2cnc3c(c2)N(Cc2cc(Cl)ccc2C(F)(F)F)CCN3)cc1)N1CCC(n2c(=O)[nH]c3ccccc32)CC1 [Example 372, 1-[1-(4-{1-[5-Chloro-2-(trifluoromethyl)benzyl]-1,2,3,4-tetrahydropyrido[2,3-b]pyrazin-7-yl}benzoyl)piperidin-4-yl]-1,3-dihydrobenzoimidazol-2-one] | 100 to 1000 nM |
| O=C(c1ccc(-c2cnc3c(c2)N(Cc2cc(Cl)ccc2C(F)(F)F)CCN3)cc1)N1CCC(c2c[nH]c3ccccc23)CC1 [Example 376, (4-{1-[5-Chloro-2-(trifluoromethyl)benzyl]-1,2,3,4-tetrahydropyrido[2,3-b]pyrazin-7-yl}phenyl)-[4-(1H-indol-3-yl)piperidin-1-yl]methanone] | 100 to 1000 nM |
| O=C(c1ccc(-c2cnc3c(c2)N(Cc2cc(Cl)ccc2C(F)(F)F)CCN3)cc1)N1Cc2ccccc2C1 [Example 433, (4-{1-[5-Chloro-2-(trifluoromethyl)benzyl]-1,2,3,4-tetrahydropyrido[2,3-b]pyrazin-7-yl}phenyl)-(1,3-dihydroisoindol-2-yl)methanone] | 100 to 1000 nM |
| O=C(c1ccc(-c2cnc3c(c2)N(Cc2cc(Cl)ccc2C(F)(F)F)CCN3)cc1)N1CCC2(CC1)OCc1ccccc12 [Example 434, {4-[1-(5-Chloro-2-trifluoromethyl-benzyl)-1,2,3,4-tetrahydropyrido[2,3-b]pyrazin-7-yl]-phenyl}-(spiro[isobenzofuran-1(3H), 4′-piperidine]-1-yl)methanone] | 100 to 1000 nM |
| O=C(c1cccc(-c2cnc3c(c2)N(Cc2cc(Cl)ccc2C(F)(F)F)CCN3)c1)N1CCC(n2c(=O)[nH]c3ccccc32)CC1 [Example 310, 1-[1-(3-{1-[5-Chloro-2-(trifluoromethyl)benzyl]-1,2,3,4-tetrahydropyrido[2,3-b]pyrazin-7-yl}benzoyl)piperidin-4-yl]-1,3-dihydrobenzoimidazol-2-one] | 100 to 1000 nM |
| O=C(c1cccc(-c2cnc3c(c2)N(Cc2cc(Cl)ccc2C(F)(F)F)CCN3)c1)N1CCN(CCc2ccccn2)CC1 [Example 330, (3-{1-[5-Chloro-2-(trifluoromethyl)benzyl]-1,2,3,4-tetrahydropyrido[2,3-b]pyrazin-7-yl}phenyl)-[4-(2-pyridin-2-yl-ethyl)piperazin-1-yl]methanone] | 100 to 1000 nM |
| O=C(NCc1cccc2ccccc12)c1cccc(-c2cnc3c(c2)N(Cc2cc(Cl)ccc2C(F)(F)F)CCN3)c1 [Example 342, 3-{1-[5-Chloro-2-(trifluoromethyl)benzyl]-1,2,3,4-tetrahydropyrido[2,3-b]pyrazin-7-yl}-N-naphthalen-1-ylmethylbenzamide] | 100 to 1000 nM |
| O=C(NCc1cc(C(F)(F)F)cc(C(F)(F)F)c1)c1ccc(-c2cnc3c(c2)N(Cc2cc(Cl)ccc2C(F)(F)F)CCN3)cc1 [Example 397, N-[3,5-Bis(trifluoromethyl)benzyl]-4-{1-[5-Chloro-2-(trifluoromethyl)benzyl]-1,2,3,4-tetrahydropyrido[2,3-b]pyrazin-7-yl}benzamide] | 100 to 1000 nM |
| O=C(c1ccc(-c2cnc3c(c2)N(Cc2cc(Cl)ccc2C(F)(F)F)CCN3)cc1)N1CCN(C(=O)C2CCCO2)CC1 (stereo not drawn) [Example 415, (4-{1-[5-Chloro-2-(trifluoromethyl)benzyl]-1,2,3,4-tetrahydropyrido[2,3-b]pyrazin-7-yl}phenyl)-[4-(tetrahydrofuran-2-carbonyl)piperazin-1-yl]methanone] | < 100 nM |
| NS(=O)(=O)c1ccc(CNC(=O)c2cccc(-c3cnc4c(c3)N(Cc3cc(Cl)ccc3C(F)(F)F)CCN4)c2)cc1 [Example 363, 3-{1-[5-Chloro-2-(trifluoromethyl)benzyl]-1,2,3,4-tetrahydropyrido[2,3-b]pyrazin-7-yl}-N-(4-sulfamoylbenzyl)benzamide] | 100 to 1000 nM |
| COc1ccc(N2CCN(C(=O)c3cccc(-c4cnc5c(c4)N(Cc4cc(Cl)ccc4C(F)(F)F)CCN5)c3)CC2)cc1 [Example 345, (3-{1-[5-Chloro-2-(trifluoromethyl)benzyl]-1,2,3,4-tetrahydropyrido[2,3-b]pyrazin-7-yl}phenyl)-[4-(4-methoxyphenyl)piperazin-1-yl]methanone] | 100 to 1000 nM |
| Cc1cc(N2CCN(C(=O)c3ccc(-c4cnc5c(c4)N(Cc4cc(Cl)ccc4C(F)(F)F)CCN5)cc3)CC2)c2ccccc2n1 [Example 403, (4-{1-[5-Chloro-2-(trifluoromethyl)benzyl]-1,2,3,4-tetrahydropyrido[2,3-b]pyrazin-7-yl}phenyl)-[4-(2-methylquinolin-4-yl)piperazin-1-yl]methanone] | < 100 nM |
| NS(=O)(=O)c1ccc(CCNC(=O)c2cccc(-c3cnc4c(c3)N(Cc3cc(Cl)ccc3C(F)(F)F)CCN4)c2)cc1 [Example 338, 3-{1-[5-Chloro-2-(trifluoromethyl)benzyl]-1,2,3,4-tetrahydropyrido[2,3-b]pyrazin-7-yl}-N-[2-(4-sulfamoylphenyl)ethyl]benzamide] | 100 to 1000 nM |
| O=C(c1ccc(-c2cnc3c(c2)N(Cc2cc(Cl)ccc2C(F)(F)F)CCN3)cc1)N1CCN(c2ncccn2)CC1 [Example 369, (4-{1-[5-Chloro-2-(trifluoromethyl)benzyl]-1,2,3,4-tetrahydropyrido[2,3-b]pyrazin-7-yl}phenyl)-(4-pyrimidin-2-ylpiperazin-1-yl)methanone] | 100 to 1000 nM |
| O=C(c1cccc(-c2cnc3c(c2)N(Cc2cc(Cl)ccc2C(F)(F)F)CCN3)c1)N1CCN(CCc2ccccc2)CC1 [Example 359, (3-{1-[5-Chloro-2-(trifluoromethyl)benzyl]-1,2,3,4-tetrahydropyrido[2,3-b]pyrazin-7-yl}phenyl)-(4-phenethylpiperazin-1-yl)methanone] | 100 to 1000 nM |
| O=C(c1cccc(-c2cnc3c(c2)N(Cc2cc(Cl)ccc2C(F)(F)F)CCN3)c1)N1CCC(N2CCOCC2)CC1 [Example 364, (3-{1-[5-Chloro-2-(trifluoromethyl)benzyl]-1,2,3,4-tetrahydropyrido[2,3-b]pyrazin-7-yl}phenyl)-(4-morpholin-4-ylpiperidin-1-yl)methanone] | 100 to 1000 nM |
| O=C(c1ccc(-c2cnc3c(c2)N(Cc2cc(Cl)ccc2C(F)(F)F)CCN3)cc1)N1CCN(CC2CCCCC2)CC1 [Example 428, (4-{1-[5-Chloro-2-(trifluoromethyl)benzyl]-1,2,3,4-tetrahydropyrido[2,3-b]pyrazin-7-yl}phenyl)-[4-(cyclohexylmethyl)piperazin-1-yl]methanone] | 1000 to 10000 nM |
| O=C(c1cccc(-c2cnc3c(c2)N(Cc2cc(Cl)ccc2C(F)(F)F)CCN3)c1)N1CCC(c2noc3cc(F)ccc23)CC1 [Example 325, (3-{1-[5-Chloro-2-(trifluoromethyl)benzyl]-1,2,3,4-tetrahydropyrido[2,3-b]pyrazin-7-yl}phenyl)-[4-(6-fluorobenzo[d]isoxazol-3-yl)piperidin-1-yl]methanone] | 100 to 1000 nM |
| O=C(NCCOc1ccccc1)c1cccc(-c2cnc3c(c2)N(Cc2cc(Cl)ccc2C(F)(F)F)CCN3)c1 [Example 355, 3-{1-[5-Chloro-2-(trifluoromethyl)benzyl]-1,2,3,4-tetrahydropyrido[2,3-b]pyrazin-7-yl}-N-(2-phenoxyethyl)benzamide] | 100 to 1000 nM |
| O=C(NCCc1cccs1)c1ccc(-c2cnc3c(c2)N(Cc2cc(Cl)ccc2C(F)(F)F)CCN3)cc1 [Example 398, 4-{1-[5-Chloro-2-(trifluoromethyl)benzyl]-1,2,3,4-tetrahydropyrido[2,3-b]pyrazin-7-yl}-N-(2-thiophen-2-yl-ethyl)benzamide] | 100 to 1000 nM |
| O=C(c1ccc(-c2cnc3c(c2)N(Cc2cc(Cl)ccc2C(F)(F)F)CCN3)cc1)N1CCN(C(c2ccccc2)c2ccccc2)CC1 [Example 377, (4-Benzhydrylpiperazin-1-yl)-(4-{1-[5-chloro-2-(trifluoromethyl)benzyl]-1,2,3,4-tetrahydropyrido[2,3-b]pyrazin-7-yl}phenyl)methanone] | 1000 to 10000 nM |
